The subject of one experiment is SV40-Luc. The experiment in a line: SV40-Luc control luciferase reporter assay, SV 5A8 cell line (SV40-Luc and SV40-R-Luc), control for non-specific inhibitors. It is filed as cell-based, human. As to conditions: SV 5A8 cells derived from SW480, 24 hours of incubation with compound, ratio Firefly/Renilla luciferase. An outline of the steps: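 SW480 cells, stably integrated reporters; SV 5A8 = SV40-firefly + SV40-Renilla control line, Tcf 33.13/Tcf 22C11 = Tcf-4-firefly + SV40-Renilla. Cpd titration, 24 h, 0.316% DMSO final. Dual-Luc/Dual-Glo read; F/R ratio (% ctrl, duplicate plates) → IC50.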
A general note: In a reporter assay the amount or activity of a reporter protein is the signal.

The subject of another experiment is β-catenin/Tcf-4. As to the kind of experiment: cells. It is filed as cell-based. Conditions: 24 hours of incubation with compound, ratio Firefly/Renilla luciferase. An outline of the steps: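 SW480-derived lines with integrated reporters (Tcf-4-driven firefly luciferase; SV40 firefly as specificity control; SV40 Renilla for cell number/toxicity), treated 24 hours with titrated compounds, final 0.316% DMSO. Dual-luciferase read-out; firefly/Renilla ratio as % of control, duplicate plates, IC50 (nM) from curve fit.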

The mark [1] stands for this setting: Homo sapiens, SW480, 24 h, Tcf 33.13 cells derived from SW480.
Setting [2] is: Homo sapiens, Tcf22C11, 24 h, Tcf 22C11 cells derived from SW480.
Where [3] appears, read: Tcf 22C11 cells derived from SW480.
The mark [4] stands for this setting: Tcf 33.13 cells derived from SW480.

The results in this text go back to patent US20090004185A1, “AMINO-SUBSTITUTED QUINAZOLINE DERIVATIVES AS INHIBITORS OF BETA-CATENIN/TCF-4 PATHWAY AND CANCER TREATMENT AGENTS” (WYETH, priority 2007, published 2009).

Regarding `CNc1nc(NCc2ccc(NC(=O)c3ccc(Cl)cc3F)cc2)c2cc(C)cc(C)c2n1` [Example 35, 4-chloro-N-[4-({[6,8-dimethyl-2-(methylamino)quinazolin-4-yl]amino}methyl)phenyl]-2-fluorobenzamide], the IC50 – broadly, the concentration at which inhibition is half-maximal – was above 21600 nM in the experiment with SV40-Luc (Homo sapiens, SV5A8, 24 h); above 21600 nM with β-catenin/Tcf-4 (setting [1]); above 21600 nM with β-catenin/Tcf-4 (setting [2]).
For the compound `Cc1ccc2nc(N(C)C)nc(NCc3ccc(NC(=O)c4ccc(F)c(F)c4)cc3)c2c1` [Example 36, N-[4-({[2-(dimethylamino)-6-methylquinazolin-4-yl]amino}methyl)phenyl]-3,4-difluorobenzamide], the concentration for half-maximal inhibition (IC50) in the experiment with SV40-Luc (Homo sapiens, SV5A8, 24 h) was above 5590 nM; with β-catenin/Tcf-4 (setting [1]), 866 nM; with β-catenin/Tcf-4 (setting [2]) it was 1170 nM.
The like results for `CNc1nc(NCc2ccc(NC(=O)c3ccc(Cl)c(Cl)c3)cc2)c2cc(C)ccc2n1` [Example 37, 3,4-dichloro-N-[4-({[6-methyl-2-(methylamino)quinazolin-4-yl]amino}methyl)phenyl]benzamide] were, in that order, above 21400 nM, 5280 nM and above 10700 nM.
On to `Cc1ccc2nc(N(C)C)nc(NCc3ccc(NC(=O)c4ccc(F)cc4)cc3)c2c1` [Example 38, N-[4-({[2-(dimethylamino)-6-methylquinazolin-4-yl]amino}methyl)phenyl]-4-fluorobenzamide], for which the half-maximal inhibitory concentration (IC50) in the experiment with SV40-Luc (Homo sapiens, SV5A8, 24 h) is above 11600 nM; in the experiment on β-catenin/Tcf-4 (setting [3]) it was 1620 nM; with β-catenin/Tcf-4 (setting [4]) it was 2050 nM.
For the compound `Cc1ccc2nc(N(C)C)nc(NCc3ccc(NC(=O)c4ccc(F)cc4)cc3)c2c1` [Example 39, N-[4-({[2-(dimethylamino)-6-methylquinazolin-4-yl]amino}methyl)phenyl]-4-fluorobenzamide], the IC50 was above 5820 nM with SV40-Luc, 428 nM in the experiment on β-catenin/Tcf-4 (setting [3]) and 217 nM in the experiment with β-catenin/Tcf-4 (setting [4]).
Take `Cc1ccc2nc(N(C)C)nc(NCc3ccc(NC(=O)c4ccc(F)cc4)cc3)c2c1` [Example 40, N-[4-({[2-(dimethylamino)-6-methylquinazolin-4-yl]amino}methyl)phenyl]-4-fluorobenzamide]: the IC50 was above 11600 nM with SV40-Luc, 1620 nM in the experiment with β-catenin/Tcf-4 (setting [3]) and 2050 nM with β-catenin/Tcf-4 (setting [4]).
In the case of `CNc1nc(NCc2ccc(NC(=O)c3cc(F)cc(F)c3)cc2)c2cc(C)ccc2n1` [Example 41, 3,5-difluoro-N-[4-({[6-methyl-2-(methylamino)quinazolin-4-yl]amino}methyl)phenyl]benzamide], the IC50 in the experiment with SV40-Luc (Homo sapiens, SV5A8, 24 h) was above 5770 nM; with β-catenin/Tcf-4 (setting [1]) it was 1650 nM; in the experiment with β-catenin/Tcf-4 (setting [2]), 2320 nM.
On the same counts, the results for `Cc1ccc2nc(N3CCCCC3)nc(NCc3ccc(NC(=O)c4ccc(F)cc4)cc3)c2c1` [Example 42, 4-fluoro-N-(4-{[(6-methyl-2-piperidin-1-ylquinazolin-4-yl)amino]methyl}phenyl)benzamide] are above 10600 nM, 2940 nM and 9250 nM.
`CCN(CC)c1nc(NCc2ccc(NC(=O)c3ccc(F)cc3)cc2)c2cc(C)ccc2n1` [Example 43, N-[4-((2-(diethylamino)-6-methylquinazolin-4-ylamino)methyl)phenyl)-4-fluorobenzamide]: the concentration for half-maximal inhibition (IC50) in the experiment on SV40-Luc (Homo sapiens, SV5A8, 24 h) is above 5460 nM; with β-catenin/Tcf-4 (setting [1]), 492 nM; in the experiment with β-catenin/Tcf-4 (setting [2]) it was 738 nM.
On the same counts, the results for `Cc1ccc2nc(N3CCCC3)nc(NCc3ccc(NC(=O)c4ccc(F)cc4)cc3)c2c1` [Example 44, N-(4-((2-(1-azacyclopentyl)-6-methylquinazolin-4-ylamino)methyl)phenyl)-4-fluorobenzamide] are above 22000 nM, above 22000 nM and above 22000 nM.
Take `Cc1ccc2nc(N3CCNCC3)nc(NCc3ccc(NC(=O)c4ccc(F)cc4)cc3)c2c1` [Example 45]: the half-inhibitory concentration (IC50) in the experiment on SV40-Luc was above 10600 nM; in the experiment on β-catenin/Tcf-4 (setting [3]), 1800 nM; in the experiment with β-catenin/Tcf-4 (setting [4]) it was 1480 nM.
As for `Cc1ccc2nc(N3CCN(C)CC3)nc(NCc3ccc(NC(=O)c4ccc(F)cc4)cc3)c2c1` [Example 46, 4-fluoro-N-((6-methyl-2-(4-methylpiperazin-1-yl)quinazolin-4-ylamino)methyl-phenyl)benzamide], the concentration for half-maximal inhibition (IC50) with SV40-Luc, with β-catenin/Tcf-4 (setting [3]) and with β-catenin/Tcf-4 (setting [4]) was above 20800 nM throughout.
As for `CNc1nc(NCc2ccc(NC(=O)c3ccccc3F)cc2)c2cc(C)ccc2n1` [Example 47, 2-fluoro-N-[4-({[6-methyl-2-(methylamino)quinazolin-4-yl]amino}methyl)phenyl]benzamide], the concentration for half-maximal inhibition (IC50) was above 24100 nM in the experiment on SV40-Luc (Homo sapiens, SV5A8, 24 h); 12800 nM in the experiment with β-catenin/Tcf-4 (setting [1]); 12000 nM in the experiment on β-catenin/Tcf-4 (setting [2]).
Turning to `Cc1ccc2nc(N3CCN(C)CC3)nc(NCc3ccc(NC(=O)c4ccc(F)cc4)cc3)c2c1` [Example 48, 4-fluoro-N-[4-({[6-methyl-2-(4-methylpiperazin-1-yl)quinazolin-4-yl]amino}methyl)phenyl]benzamide], the 50% inhibitory concentration (IC50) was above 20600 nM with SV40-Luc (Homo sapiens, SV5A8, 24 h); above 20600 nM in the experiment on β-catenin/Tcf-4 (setting [1]); above 20600 nM in the experiment with β-catenin/Tcf-4 (setting [2]).
Regarding `Cc1cc(C)c2nc(N3CCN(C)CC3)nc(NCc3ccc(NC(=O)c4ccc(F)cc4)cc3)c2c1` [Example 49, N-[4-({[6,8-dimethyl-2-(4-methylpiperazin-1-yl)quinazolin-4-yl]amino}methyl)phenyl]-4-fluorobenzamide], the IC50 was above 10000 nM with SV40-Luc (Homo sapiens, SV5A8, 24 h); above 2510 nM in the experiment with β-catenin/Tcf-4 (setting [1]); above 2510 nM with β-catenin/Tcf-4 (setting [2]).
For `Cc1ccc2nc(N3CCN[C@@H](C)C3)nc(NCc3ccc(NC(=O)c4ccc(F)cc4)cc3)c2c1` [Example 51, 4-fluoro-N-{4-[({6-methyl-2-[(3S)-3-methylpiperazin-1-yl]quinazolin-4-yl}amino)methyl]phenyl}benzamide], the 50% inhibitory concentration (IC50) was above 5160 nM with SV40-Luc (Homo sapiens, SV5A8, 24 h); 987 nM in the experiment on β-catenin/Tcf-4 (setting [1]); 1070 nM with β-catenin/Tcf-4 (setting [2]).
On the same counts, the results for `Cc1cc(C)c2nc(N(C)C)nc(NCc3ccc(NC(=O)c4ccc(F)cc4)cc3)c2c1` [Example 52, N-[4-({[2-(dimethylamino)-6,8-dimethylquinazolin-4-yl]amino}methyl)phenyl]-4-fluorobenzamide] are above 22500 nM, 1310 nM and 1650 nM.
Take `Cc1ccc2nc(N(C)C)nc(NCc3ccc(NC(=O)c4ccc(Cl)cc4)cc3)c2c1` [Example 53, 4-chloro-N-[4-({[2-(dimethylamino)-6-methylquinazolin-4-yl]amino}methyl)phenyl]benzamide]: the half-maximal inhibitory concentration (IC50) with SV40-Luc (Homo sapiens, SV5A8, 24 h) is above 2800 nM; with β-catenin/Tcf-4 (setting [1]) it was 306 nM; in the experiment on β-catenin/Tcf-4 (setting [2]), 462 nM.
On to `CCOC(=O)N1CCN(c2nc(NCc3ccc(NC(=O)c4ccc(F)cc4)cc3)c3cc(C)ccc3n2)CC1` [Example 54, Ethyl 4-[4-({4-[(4-fluorobenzoyl)amino]benzyl}amino)-6-methylquinazolin-2-yl]piperazine-1-carboxylate], for which the IC50 in the experiment with SV40-Luc (Homo sapiens, SV5A8, 24 h) is above 18400 nM; in the experiment with β-catenin/Tcf-4 (setting [1]), 846 nM; with β-catenin/Tcf-4 (setting [2]), 1230 nM.
Regarding `Cc1ccc2nc(N3CCN(c4ccccn4)CC3)nc(NCc3ccc(NC(=O)c4ccc(F)cc4)cc3)c2c1` [Example 55, 4-fluoro-N-[4-({[6-methyl-2-(4-pyridin-2-ylpiperazin-1-yl)quinazolin-4-yl]amino}methyl)phenyl]benzamide], the IC50 with SV40-Luc (Homo sapiens, SV5A8, 24 h) is above 18300 nM; in the experiment with β-catenin/Tcf-4 (setting [1]) it was 3260 nM; with β-catenin/Tcf-4 (setting [2]) it was 8650 nM.
As for `Cc1ccc2nc(N3CCCCCC3)nc(NCc3ccc(NC(=O)c4ccc(F)cc4)cc3)c2c1` [Example 56, N-(4-{[(2-azepan-1-yl-6-methylquinazolin-4-yl)amino]methyl}phenyl)-4-fluorobenzamide], the concentration for half-maximal inhibition (IC50) in the experiment with SV40-Luc (Homo sapiens, SV5A8, 24 h) is above 5170 nM; with β-catenin/Tcf-4 (setting [1]), 2010 nM; in the experiment on β-catenin/Tcf-4 (setting [2]) it was 1740 nM.
Take `CCN1CCN(c2nc(NCc3ccc(NC(=O)c4ccc(F)cc4)cc3)c3cc(C)ccc3n2)CC1` [Example 57, N-[4-({[2-(4-ethylpiperazin-1-yl)-6-methylquinazolin-4-yl]amino}methyl)phenyl]-4-fluorobenzamide]: the IC50 in the experiment with SV40-Luc (Homo sapiens, SV5A8, 24 h) is above 10000 nM; with β-catenin/Tcf-4 (setting [1]), 1600 nM; in the experiment on β-catenin/Tcf-4 (setting [2]) it was 923 nM.
Regarding `Cc1ccc2nc(N(C)Cc3ccccn3)nc(NCc3ccc(NC(=O)c4ccc(F)cc4)cc3)c2c1` [Example 58, 4-fluoro-N-{4-[({6-methyl-2-[methyl(pyridin-2-ylmethyl)amino]quinazolin-4-yl}amino)methyl]phenyl}benzamide], the concentration for half-maximal inhibition (IC50) with SV40-Luc (Homo sapiens, SV5A8, 24 h) turned out to be 4190 nM; with β-catenin/Tcf-4 (setting [1]), 2080 nM; in the experiment with β-catenin/Tcf-4 (setting [2]), 2500 nM.
As to `CN(C)c1ccc(-c2ccc3nc(N(C)C)nc(NCc4ccc(NC(=O)c5ccc(F)cc5)cc4)c3c2)cn1` [Example 59, N-{4-[({2-(dimethylamino)-6-[6-(dimethylamino)pyridin-3-yl]quinazolin-4-yl}amino)methyl]phenyl}-4-fluorobenzamide], the half-maximal inhibitory concentration (IC50) with SV40-Luc (Homo sapiens, SV5A8, 24 h) was above 2330 nM; in the experiment on β-catenin/Tcf-4 (setting [1]), 453 nM; in the experiment on β-catenin/Tcf-4 (setting [2]), 229 nM.
As to `CN(C)c1nc(NCc2ccc(NC(=O)c3ccc(F)cc3)cc2)c2cc(F)ccc2n1` [Example 60, N-[4-({[2-(dimethylamino)-6-fluoroquinazolin-4-yl]amino}methyl)phenyl]-4-fluorobenzamide], the IC50 with SV40-Luc (Homo sapiens, SV5A8, 24 h) is above 11500 nM; in the experiment with β-catenin/Tcf-4 (setting [1]), 1950 nM; in the experiment on β-catenin/Tcf-4 (setting [2]), 5390 nM.
